The structures appear in SMILES notation.

The test system of experiment [1] is Hedgehog signaling pathway. The experiment in a line: Hedgehog reporter assay (Gli Reporter - NIH3T3 Cell Line). The format is cell-based. The note with it: Mus musculus; Gli reporter NIH3T3 cells, murine SHH stimulation, 24 h; read-out: HH Assay. On the procedure: In order to investigate the potency of test compounds to inhibit the Hedgehog signaling pathway, a Gli-Reporter assay was performed.
The “Gli Reporter—NIH3T3 Cell Line” contains the firefly luciferase gene under the control of Gli responsive elements stably integrated into murine NIH3T3 cells (cells purchased from Amsbio). The luciferase expression correlates with activation of the hedgehog signaling pathway. This cell line is validated for its response to stimulation with murine Sonic Hedgehog and to treatment with inhibitors of the hedgehog signaling pathway. A multiplexed viability assay was used to discriminate inhibition on the pathway activity from cell toxicity.
Growth Medium: DMEM, 10% Calf Serum, 1% Penicillin/Streptomycin 500 μg/ml Geneticin (G418 Stock 50 mg/ml).
25.000 cells per well were seeded into a white 96 well plate in 100 μl growth medium and incubated over night at 37° C. and 5% CO2. After removing the supernatant the test compounds and controls (known GLI inhibitor, e.g. GANT-61) were added in different concentrations in a final volume of 45 μl and incubated for 1 h at 37° C. and 5% CO2. For the stimulation of the Hedgehog pathway 5 μl of 10 μg/ml concentrated murine sonic hedgehog (SHH) was added to the cells. A final concentration of 1 μg/ml mSHH and 0.1% DMSO was reached per well. After incubation for 24 h at 37° C. the cells were investigated for viability and reporter activity.
Viability: For the determination of the viability of the treated cells the CellTiter-Fluor Kit from Promega was used. Essentially, only proteases of viable cells are able to cleave the cell-permeant substrate Gly-Phe-AFCoumarin (GF-AFC). By this cleavage the fluorescent AFC is set free and can be detected in a fluorescence reader. For this assay 10 μl of GF-AFC substrate (CellTiter-Fluor, Promega #G6082) was diluted in 2 ml assay buffer from the CellTiter-Fluor Kit and 10 μl of this dilution was added per well to the cells and incubated for 30 min at 37° C. The fluorescence was measured with excitation at 380-400 nm and emission at 505 nm.
Reporter activity: The firefly luciferase reporter activity was detected with the ONE-Glo™ Luciferase Assay System from Promega. For this assay 50 μl ONE-Glo luciferase reagent (Promega #E6120, contains cell lysis buffer and luciferin) was added to each well and incubated at room temperature for 5 min. Luminescence was detected in a plate reader and served as a degree for reporter activity.
For orientation: A reporter such as luciferase makes a cellular process visible.

The subject of experiment [2] is HT1080 (connective tissue). The experiment in a line: Proliferation Assay. It counts as cell-based. To be noted: Homo sapiens, HT-1080, 72 h, read-out: IC50 inhibition of cell growth. The method, then:
(§1) For the determination of the inhibitory capacity of compounds of the present invention (in the following: “test compound(s)”) on cell growth, cancer cells were seeded into microtitre plates, treated with different concentrations of test compound or left untreated, and after 72 h the protein content was determined as an equivalent for the cell number.
(§2) Test compounds were dissolved in 100% DMSO and predilutions in cell culture medium were prepared with a final concentration of 0.1% DMSO in medium. The cell culture medium for dilution of the test compounds, consecutive culturing of cell lines and usage during the assay was a cell line specific medium as recommended by the cell line supplier and identical for all three applications mentioned above. After a 24-hour pre-growth period of the seeded cancer cells, the test compound containing media or medium containing 0.1% DMSO as control was added to the cells. The cells were allowed to grow at 37° C. for 72 hours. In addition, all experiments contained a few plates with cells that were processed for measurement immediately after the 24 hours recovery period. These plates contained information about the cell number that existed before treatment, at time zero, and served to calculate the cytotoxicity and/or growth inhibitory effects.
(§3) After treatment, cells were precipitated by addition of 10% TCA (trichloracetic acid). Prior to fixation, the media was aspirated. After an hour of incubation at 4° C. the plates were washed twice with 400 μl of deionized water. Cells were then stained with 100 μl of a 0.08% wt/v SRB (sulforhodamine). The plates were allowed to sit for at least 30 min and washed six times with 1% acetic acid to remove unbound staining agent. The plates were left to dry at room temperature and bound SRB was solubilized with 100 μl of 10 mM Tris base. Measurement of optical density was performed at 560 nm on a Victor 2 plate reader (Perkin Elmer, Germany).
(§4) One common way to express the effect of an anticancer agent is to measure cell viability and survival in the presence of the test agent as % Treated/Control×100. The relationship between the viability and dose is called a dose response curve. Those dose response curves were determined by using algorithms developed by Oncolead GmbH & Co. KG, Munich, Germany, that can be compared to commercial applications, e.g. XLfit™ (ID Business Solutions Ltd., Guildford, UK) algorithm “205”.

For experiment [3], the system named is MDAMB436 (breast). The experiment can be described thus: Proliferation Assay. To be noted: Homo sapiens, MDA-MB-436, 72 h, read-out: IC50 inhibition of cell growth. The format is cell-based. The method, then: as §1, §2, §3, §4
The subject of experiment [4] is CAKI1 (kidney). The experiment can be described thus: Proliferation Assay. It counts as cell-based. The note with it: Homo sapiens, CAKI-1, 72 h, read-out: IC50 inhibition of cell growth. The method, then:
as §1, §2, §3, §4

Experiment [5] deals with HS578T (breast). The experiment can be described thus: Proliferation Assay. It counts as cell-based. The note with it: Homo sapiens, Hs-578T, 72 h, read-out: IC50 inhibition of cell growth. The method, then:
as §1, §2, §3, §4

Experiment [6] has as its system SKLMS1 (uterus). The experiment can be described thus: Proliferation Assay. It counts as cell-based. The note with it: Homo sapiens, SK-LMS-1, 72 h, read-out: IC50 inhibition of cell growth. The method, then: as §1, §2, §3, §4
Experiment [7] relates to SKHEP1 (liver). The experiment can be described thus: Proliferation Assay. The format is cell-based. To be noted: Homo sapiens, SK-HEP1, 72 h, read-out: IC50 inhibition of cell growth. On the procedure:
as §1, §2, §3, §4

Experiment [8] concerns MDAMB468 (breast). The experiment in a line: Proliferation Assay. It counts as cell-based. To be noted: Homo sapiens, MDA-MB-468, 72 h, read-out: IC50 inhibition of cell growth. On the procedure: as §1, §2, §3, §4
The test system of experiment [9] is SW620 (colon). The experiment can be described thus: Proliferation Assay. It counts as cell-based. The note with it: Homo sapiens, SW-620, 72 h, read-out: IC50 inhibition of cell growth. On the procedure:
as §1, §2, §3, §4

In experiment [10] the target is Casein kinase 1 delta (CSKN1D) (Homo sapiens, UniProt P48730). The experiment can be described thus: Casein kinase assay, CK1 delta. The format is biochemical. The note with it: recombinant CSKN1D 5 nM, ATP 10 μM.
Sequence of Casein kinase 1 delta (CSKN1D) (P48730 whole entry): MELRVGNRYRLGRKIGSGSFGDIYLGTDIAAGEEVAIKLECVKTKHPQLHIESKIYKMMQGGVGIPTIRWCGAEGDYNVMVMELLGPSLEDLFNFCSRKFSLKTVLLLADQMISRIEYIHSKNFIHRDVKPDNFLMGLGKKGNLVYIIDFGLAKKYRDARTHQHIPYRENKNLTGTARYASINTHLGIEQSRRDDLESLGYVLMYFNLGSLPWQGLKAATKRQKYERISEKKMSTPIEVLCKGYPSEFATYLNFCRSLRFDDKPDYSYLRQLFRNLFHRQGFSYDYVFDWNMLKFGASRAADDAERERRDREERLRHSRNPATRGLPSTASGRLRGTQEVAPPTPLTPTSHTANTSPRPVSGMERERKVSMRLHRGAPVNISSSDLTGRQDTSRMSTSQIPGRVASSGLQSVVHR

`COc1cccc(C(=O)Nc2nc3cc4c(cc3[nH]2)OC(F)(F)O4)c1` [Compound 56, N-(2,2-difluoro-5H-[1,3]dioxolo[4′,5′:4,5]benzo[1,2-d]imidazol-6-yl)-3-methoxybenzamide]: the IC50 in experiment [1] is no more than 500 nM; in experiment [2], no more than 1000 nM; in experiment [3] it was no more than 1000 nM; in experiment [4], no more than 1000 nM; in experiment [5], no more than 1000 nM; in experiment [6] it was no more than 1000 nM. Also, the IC50 in experiment [7] was no more than 1000 nM; in experiment [8], no more than 1000 nM; in experiment [9] it was no more than 1000 nM; in experiment [10], less than 200 nM.

These data come from patent US20170240556A1, “BIFLUORODIOXALANE-AMINO-BENZIMIDAZOLE KINASE INHIBITORS FOR THE TREATMENT OF CANCER, AUTOIMMUNEINFLAMMATION AND CNS DISORDERS” (4SC DISCOVERY GMBH, priority 2012, published 2017).
